In patent US20250319139A1, “METHODS FOR TREATING NEUROINFLAMMATION” (University of Virginia Patent Foundation, priority 2021, published 2025):

Columns and labels:
[1] = system: C57BL/6J mice; test: Neurological deficit scores after MCAO; format: in vivo, mouse; conditions: young mice, 100 mg/kg intraperitoneal 1 h before and 6 h after 120-min MCAO; 24 h after MCAO; vs saline
Method: (§1) As we described previously, left MCAO with intravascular suture technique was performed to mice. Briefly, mice were anesthetized with isoflurane and the rectal temperature was maintained at 37±0.5° C. by the feedback-controlled heating system. A monofilament nylon suture (catalog number: 1622-A1, Beijing CiNontech Co. Ltd., Beijing, China) was used to induce the MCAO via the external carotid artery to the left internal carotid artery until slight resistance was felt. Mice were re-anesthetized by isoflurane and the sutures were removed at 60 min (only for the set of experiments of old mice with fecal transplantation; this selection was because of a high mortality rate after a longer MCAO) or 120 min (for all other sets of experiments) after the onset of MCAO.
Neurological deficit scores were tested 24 h after the stroke by a blinded investigator [25, 26]. Briefly, mice were scored as follows: zero, no apparent deficits; one, failure to extend right forepaw fully; two, decreased grip of the right forelimb; three, spontaneous movement in all directions, contralateral circling only if pulled by the tail; four, circling or walking to the right; five, walking only if stimulated; six, unresponsiveness to stimulation and with depressed level of consciousness; and seven, dead.

[2] = system: C57BL/6J mice; test: Rotarod test after MCAO; format: in vivo, mouse; conditions: young mice, 100 mg/kg intraperitoneal 1 h before and 6 h after 120-min MCAO; 24 h after MCAO; vs saline
Method: as §1
Rotarod test was performed to evaluate the motor coordination as we described before. All mice received the training for three continuous days before the induction of brain ischemia. The formal test was performed just 24 h before and 24 h after the MCAO. […] The latency and the speed were recorded when the tested mice fell off the rod. […] The speed-latency index, which is latency(s)×speed (rpm), was calculated. The ratio of mean index of the five trials obtained after MCAO and before MCAO was calculated to reflect the change in coordinate function of each mouse.

[3] = system: IL-6; test: ELISA of IL-6 in the brain; format: in vivo, mouse; conditions: young mice, 100 mg/kg intraperitoneal 1 h before and 6 h after 120-min MCAO; 24 h after MCAO; vs saline
Method: (§2) Mice were weighed and anesthetized with isoflurane at 24 h after MCAO. Blood samples were obtained from the right heart after thoracotomy. Blood was centrifuged (13,000 g, 4° C.) after it had been placed at 4° C. for 2 h for the collection of serum. After the collection of blood, mice were perfused with 4° C. saline for brain tissue harvesting. The cerebral cortex (anteroposterior: -1.5 to 2.5 mm, mediolateral: 1.0 to 3.0 mm) was dissected out. All dissection procedures were performed on ice. IL-10, IL-17, IL-1β and IL-6 in the serum and brain were detected by using ELISA kits (catalog number: M1000B, M1700, MLB00C and D6050, R&D SYSTEM, Inc., Minneapolis, MN, USA) as we described before. The brain tissues were homogenized on ice in the RIPA buffer containing 25 mM Tris-HCl with pH 7.6, 150 mM NaCl, 1% sodium deoxycholate and 0.1% SDS (catalog number: 89901, Thermo Scientific, Rockford, IL, USA) and a protease inhibitor cocktail containing 10 mg/ml aproteinin, 5 mg/ml […], 5 mg/ml leupetin and 1 mM phenylmethane sulfonylfluoride (catalog number: SRE0055, Sigma-Aldrich, St. Louis, MO, USA). The supernatant was collected for ELISA detection after being centrifuged for 20 min (13,000 g, 4° C.) and the protein concentration was determined by the BCA method. Cytokines in the serum and supernatant of brain were detected according to the manufacturer's instruction. […]

[4] = system: C57BL/6J mice; test: Infarct volume after MCAO; format: in vivo, mouse; conditions: young mice, 100 mg/kg intraperitoneal 1 h before and 6 h after 120-min MCAO; 24 h after MCAO; vs saline
Method: As we described previously, left MCAO with intravascular suture technique was performed to mice. Briefly, mice were anesthetized with isoflurane and the rectal temperature was maintained at 37±0.5° C. by the feedback-controlled heating system. A monofilament nylon suture (catalog number: 1622-A1, Beijing CiNontech Co. Ltd., Beijing, China) was used to induce the MCAO via the external carotid artery to the left internal carotid artery until slight resistance was felt. […]
The infarct volumes were assessed 24 h after MCAO by a blinded investigator after 2,3,5-triphenyltetrazolium chloride staining. […] The average infarct area of the rostral and caudal sides of each slice was calculated. The infarct volume of the brain slice was calculated by multiplying the average infarct area of the slice by the thickness of the slice. […] To correct the cerebral edema and differential shrinkage resulting from brain ischemia and tissue processing, the corrected brain infarct volume was calculated: corrected brain infarct volume in percentage=[right hemisphere volume-(left hemisphere volume-left infarction volume)]×100/right hemisphere volume.

[5] = Valeric acid in the blood by ELISA (pilot dosage experiment); format: in vivo, mouse; conditions: young mice, 100 mg/kg intraperitoneal twice at an interval of 7 h; blood 3 h after second injection; pilot study
Method: A pilot experiment was performed to determine the dosage of valeric acid used in this study. Eight-week old mice were divided into two groups: Y-Saline group that received two intraperitoneal 100 μl normal saline injections at an interval of 7 h, and Y-Valeric group that received two intraperitoneal 100 mg/kg in 100 μl valeric sodium injections at an interval of 7 h. One group of 18-month old mice that was labeled O-Saline received two intraperitoneal 100 μl normal saline injections at an interval of 7 h. Blood was harvested 3 h after the second injection of valeric sodium or normal saline to measure valeric acid.
Valeric acid in the blood harvested from the experiment to determine the dosage of valeric acid injected intraperitoneally was measured by using an ELISA kit (catalog number: JM-12270M1, Jingmei Biotechnology, Jiangsu, China) following the manufacturer's instructions.

[6] = system: IL-1β; test: ELISA of IL-1β in the brain; format: in vivo, mouse; conditions: young mice, 100 mg/kg intraperitoneal 1 h before and 6 h after 120-min MCAO; 24 h after MCAO; vs saline
Method: as §2

[7] = system: IL-17; test: ELISA of IL-17 in the serum; format: in vivo, mouse; conditions: mice without MCAO; 1 mg/kg by gastric gavage after each valeric sodium 100 mg/kg intraperitoneal injection, 7 days
Method: (§3) Mice were weighed and anesthetized with isoflurane at 24 h after MCAO. Blood samples were obtained from the right heart after thoracotomy. Blood was centrifuged (13,000 g, 4° C.) after it had been placed at 4° C. for 2 h for the collection of serum. After the collection of blood, mice were perfused with 4° C. saline for brain tissue harvesting. The cerebral cortex (anteroposterior: −1.5 to 2.5 mm, mediolateral: 1.0 to 3.0 mm) was dissected out. All dissection procedures were performed on ice.
(§4) IL-10, IL-17, IL-1β and IL-6 in the serum and brain were detected by using ELISA kits (catalog number: M1000B, M1700, MLB00C and D6050, R&D SYSTEM, Inc., Minneapolis, MN, USA) as we described before. The brain tissues were homogenized on ice in the RIPA buffer containing 25 mM Tris-HCl with pH 7.6, 150 mM NaCl, 1% sodium deoxycholate and 0.1% SDS (catalog number: 89901, Thermo Scientific, Rockford, IL, USA) and a protease inhibitor cocktail containing 10 mg/ml aproteinin, 5 mg/ml peptastin, 5 mg/ml leupetin and 1 mM phenylmethane sulfonylfluoride (catalog number: SRE0055, Sigma-Aldrich, St. Louis, MO, USA). The supernatant was collected for ELISA detection after being centrifuged for 20 min (13,000 g, 4° C.) and the protein concentration was determined by the BCA method. Cytokines in the serum and supernatant of brain were detected according to the manufacturer's instruction. The amount of IL-10, IL-17, IL-1β and IL-6 in each sample in the brain was normalized by its protein content.

[8] = system: IL-17; test: ELISA of IL-17 in the brain; format: in vivo, mouse; conditions: mice without MCAO; 1 mg/kg by gastric gavage after each valeric sodium 100 mg/kg intraperitoneal injection, 7 days
Method: as §3, §4

[9] = system: C57BL/6J mice; test: Novel object recognition test, young adult mice; format: in vivo, mouse; conditions: surgery mice; intracerebroventricular 10 μg/kg at 0, 24, 48 and 72 h after surgery; vs solvent
[10] = system: C57BL/6J mice; test: Barnes maze test, young adult mice; format: in vivo, mouse; conditions: surgery mice; intracerebroventricular 10 μg/kg at 0, 24, 48 and 72 h after surgery; vs solvent
[11] = system: gut microbiota; conditions: 300 mg/kg intraperitoneal once daily for 5 consecutive days; previous study [20]; cited from earlier work
[12] = system: IL-1β; test: IL-1β in the hippocampus by ELISA; format: in vivo, mouse; conditions: intracerebroventricular injection at surgery; hippocampus 48 h after surgery
Method: (§5) IL-1β, IL-6, C3 and GDNF in the hippocampus were detected by using ELISA kits. For testing the IL-1β, IL-6 and GDNF, brain tissues were homogenized on ice in the RIPA buffer containing 25 mM Tris-HCl with pH 7.6, 150 mM NaCl, 1% sodium deoxycholate, 0.1% SDS and a protease inhibitor cocktail containing 10 mg/ml aproteinin, 5 mg/ml peptastin, 5 mg/ml leupetin and 1 mM phenylmethane sulfonylfluoride. For C3 testing, brain tissues were homogenized on ice in the PTR buffer (supplied in the kit). The supernatant was collected for ELISA detection after the homogenate was centrifuged at 13,000 g for 20 min at 4° C. and the protein concentration was determined by the BCA protein assay (Bio-Rad, Hemel Hempstead, Herts, UK). IL-1β, IL-6, C3 and GDNF in supernatant of brain were detected according to the manufacturer's instruction for ELISA, and the amount of them in each sample in the brain was normalized by its total protein content and was expressed as pg/mg protein.

[13] = system: IL-6; test: IL-6 in the hippocampus by ELISA; format: in vivo, mouse; conditions: intracerebroventricular injection at surgery; hippocampus 48 h after surgery
Method: as §5

[14] = system: C3; test: C3 in the hippocampus by ELISA; format: in vivo, mouse; conditions: intracerebroventricular injection at surgery; hippocampus 48 h after surgery
Method: as §5

Q: For `CCCCC(=O)[O-].[Na+]` [valeric sodium], which neurological deficit scores [1] is on record?
A: The neurological deficit scores was “worse”.

Q: What about the performance on rotarod [2] of the same molecule?
A: The performance on rotarod was “poorer performance”.

Q: What about the “IL-6 in the ischemic penumbral brain tissues” value [3] of the same molecule?
A: The value was “increased”.

Q: What about the infarct volume [4] of the same molecule?
A: The infarct volume was “larger”.

Q: What about the “concentrations of valeric acid in the blood” value [5] of the same molecule?
A: Its value is “a level similar to that in the old mice”.

Q: What about the “IL-1β in the ischemic penumbral brain tissues” value [6] of the same molecule?
A: The value was “increased”.

Q: What does the source list for `C[C@]1(C(=O)N(CCCC(=O)O)Cc2cccc(Cl)c2)CCN1C(=O)c1csc2ccccc12` [GLPG-0974]?
A: increase of IL-17 in the blood caused by valeric acid [7]: blocked the increase; increase of IL-17 in the brain (cerebral cortex) caused by valeric acid [8]: blocked the increase

Q: Which results are given for `NC(N)=NCCC[C@H](NC(=O)COCC(c1ccccc1)c1ccccc1)C(=O)O` [SB290157]?
A: performance in novel object recognition test [9]: improved the performance; time to identify target box in Barnes maze [10]: took less time

Q: For `Cc1nnc(SCC2=C(C(=O)O)N3C(=O)[C@@H](NC(=O)Cn4cnnn4)[C@H]3SC2)s1` [cefazolin], which “gut microbiota in the colon by 16S rRNA analyses” value [11] is on record?
A: Its value is “almost undetectable level”.

B1: GDNF: recombinant mouse GDNF (glia-derived nerve factor) (protein, UniProt P48540 78-211, looked up)
Glial cell line-derived …: SPDKQAAALPRRERNRQAAAASPENSRGKGRRGQRGKNRGCVLTAIHLNVTDLGLGYETKEELIFRYCSGSCESAETMYDKILKNLSRSRRLTSDKVGQACCRPVAFDDDLSFLDDNLVYHILRKHSAKRCGCI
Q: For B1, which “IL-1β levels in the hippocampus after surgery” value [12] is on record?
A: The value was “reduced”.

Q: And the “IL-6 levels in the hippocampus after surgery” value [13]?
A: Its value is “reduced”.

Q: And the “C3 levels in the hippocampus after surgery” value [14]?
A: Its value is “reduced”.

B2: heat-inactivated GDNF: heat-denatured (5 min at 100° C.) GDNF solution (protein, UniProt P48540 78-211, looked up)
Glial cell line-derived …: SPDKQAAALPRRERNRQAAAASPENSRGKGRRGQRGKNRGCVLTAIHLNVTDLGLGYETKEELIFRYCSGSCESAETMYDKILKNLSRSRRLTSDKVGQACCRPVAFDDDLSFLDDNLVYHILRKHSAKRCGCI
modifications: heat-denatured
notes: heat-denatured (5 min at 100° C.) GDNF solution
Q: With B2 as the molecule, how does the “IL-6 levels in the hippocampus after surgery” value [13] read?
A: The value was “not”.

Q: And the “C3 levels in the hippocampus after surgery” value [14]?
A: Its value is “not”.
